Data on twelve compounds can be found in patent US20110038885A1, “CHEMOKINE ANALOGS” (priority 2007, published 2011).

The structures appear in SMILES notation. Bridge positions count the residues as written; N and C are the ends. Square brackets hold non-standard residues; d marks the D form. Peptide text beside a SMILES is read from it. * marks the point of attachment. d(pGlu) = O=C1CC[C@H](C(=O)O)N1; Lauroyl = CCCCCCCCCCCC(=O)*; Octanoyl = CCCCCCCC(=O)*; Butyryl = CCCC(=O)* Some results are limits rather than exact numbers.

A short description of one series: Half-life in rat in vivo. Particulars: for half-life: read-out: T ½ rat in vivo.
Another series concerns MCP-1. Description: In vitro chemotaxis (trans-well migration) v MCP-1. It counts as cell-based, human. Summed up:
(§1)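 Trans-well migration toward IL-8 or MCP-1 placed below, with agent added to THP-1 cells (10^4-10^6) in the top well and incubation at 37° C (e.g. 4 hours). MTT absorbance at 595 nm, interpolated on a cell standard curve, gives migrated cell numbers; TGFβ-type negative control and cytotoxicity check included.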

A further series concerns IL-8. Description: In vitro chemotaxis, inhibition v IL-8. It counts as cell-based, human. On the set-up: concentration or dose not given beside the values. The gist of the method:
as §1

As for `CC[C@H](C)[C@@H]1NC(=O)[C@H](Cc2c[nH]c3ccccc23)NC(=O)[C@H](CCCCN)NC(=O)[C@H](CCC(N)=O)NC(=O)[C@H](CCCCN)NC(=O)[C@@H](NC(=O)[C@@H]2CCCN2C(=O)[C@H](CC(=O)O)NC(=O)[C@H](CC(C)C)NC(C)=O)CSSC[C@@H](C(N)=O)NC(=O)[C@H](CCC(N)=O)NC1=O` [Example 21, Ac-Leu-Asp-Pro-c(Cys-Lys-Gln-Lys-Trp-Ile-Gln-Cys)-NH2] (Ac-LDPCKQKWIQC-NH2; disulfide 4-11), the half-life in the series “Half-life in rat in vivo” was found to be 22 min. In the series with MCP-1, a half-maximal response (EC50) required 7 nM. For the same compound, the “v IL-8 inhibition (%)” value in the series on IL-8 was 96.3%.
Take `CC[C@H](C)[C@@H]1NC(=O)[C@H](Cc2c[nH]c3ccccc23)NC(=O)[C@H](CCCCN)NC(=O)[C@@H](NC(=O)[C@H](CCC(N)=O)NC(=O)[C@@H](N)CCCCN)CSSC[C@@H](C(N)=O)NC(=O)[C@H](CCC(N)=O)NC1=O` [Example 48, Lys-Gln-c(Cys-Lys-Trp-Ile-Gln-Cys)-NH2] (H-KQCKWIQC-NH2; disulfide 3-8): in “Half-life in rat in vivo”, the half-life is below 5 min. For the same compound, the EC50 (usually the concentration needed to bring the measured effect to its halfway point) in the series with MCP-1 is 8 nM. For the same compound, in the series with IL-8, the “v IL-8 inhibition (%)” value is on record as 91.9%.
Regarding `CCCCCCCC(=O)NCCCC[C@H](NC(=O)[C@H](CC(=O)O)NC(=O)[C@H]1CSSC[C@@H](N)C(=O)N[C@H](CCC(N)=O)C(=O)N[C@H]([C@H](C)CC)C(=O)N[C@H](Cc2c[nH]c3ccccc23)C(=O)N[C@H](CCCCN)C(=O)N[C@H](CCC(N)=O)C(=O)N[C@H](CCCCN)C(=O)N2CCC[C@@H]2C(=O)N[C@H](CC(=O)O)C(=O)N[C@H](CC(C)C)C(=O)N1)C(=O)O` [Example 148, c(D-Cys-D-Gln-D-Ile-D-Trp-D-Lys-D-Gln-D-Lys-D-Pro-D-Asp-D-Leu-D-Cys)-Asp-Lys(Nε-octanoyl)-OH] (H-[dC][dQ][dI][dW][dK][dQ][dK][dP][dD][dL][dC]DK(Octanoyl)-OH; disulfide 1-11), in “Half-life in rat in vivo”, the half-life stood at 39 min. In addition, the midpoint of the response in the series on MCP-1, the EC50, lay at 6 nM. In addition, in the series on IL-8, the “v IL-8 inhibition (%)” value worked out at 100.9%.
`CC[C@H](C)[C@@H]1NC(=O)[C@H](Cc2c[nH]c3ccccc23)NC(=O)[C@H](CCCCN)NC(=O)[C@H](CCC(N)=O)NC(=O)[C@H](CCCCN)NC(=O)[C@H]2CCCN2C(=O)[C@H](CC(=O)O)NC(=O)[C@H](CC(C)C)NC(=O)[C@@H](NC(C)=O)CSSC[C@@H](C(N)=O)NC(=O)[C@H](CCC(N)=O)NC1=O` [Example 30, Ac-c(Cys-Leu-Asp-D-Pro-Lys-Gln-Lys-Trp-Ile-Gln-Cys)-NH2] (Ac-CLD[dP]KQKWIQC-NH2; disulfide 1-11): the half-life in the series “Half-life in rat in vivo” is below 10 min. The compound further returned an EC50 in the series on MCP-1 of 8 nM. In addition, the “v IL-8 inhibition (%)” value in the series with IL-8 is 99.2%.
Turning to `CC[C@H](C)[C@@H]1NC(=O)[C@H](Cc2c[nH]c3ccccc23)NC(=O)[C@H](CCCCN)NC(=O)[C@H](CCC(N)=O)NC(=O)[C@H](CCCCN)NC(=O)[C@@H]2CCCN2C(=O)[C@H](CC(=O)O)NC(=O)[C@@H](NC(=O)[C@H](CC(C)C)NC(C)=O)CSSC[C@@H](C(N)=O)NC(=O)[C@H](CCC(N)=O)NC1=O` [Example 19, Ac-Leu-c(Cys-Asp-Pro-Lys-Gln-Lys-Trp-Ile-Gln-Cys)-NH2] (Ac-LCDPKQKWIQC-NH2; disulfide 2-11), the half-life in the series “Half-life in rat in vivo” was below 5 min. It took 7 nM to reach a half-maximal effect with MCP-1 (EC50). The “v IL-8 inhibition (%)” value in the series with IL-8 is listed as 100.5%.
`CCCCCCCCCCCC(=O)NCCCC[C@H](N)C(=O)N[C@@H](CC(=O)O)C(=O)N[C@H]1CSSC[C@@H](C(N)=O)NC(=O)[C@H](CCC(N)=O)NC(=O)[C@H]([C@@H](C)CC)NC(=O)[C@H](Cc2c[nH]c3ccccc23)NC(=O)[C@H](CCCCN)NC(=O)[C@H](CCC(N)=O)NC(=O)[C@H](CCCCN)NC(=O)[C@@H]2CCCN2C(=O)[C@H](CC(=O)O)NC(=O)[C@H](CC(C)C)NC1=O` [Example 170, Lys(Nε-dodecanoyl)-Asp-c(Cys-Leu-Asp-Pro-Lys-Gln-Lys-Trp-Ile-Gln-Cys)-NH2] (H-K(Lauroyl)DCLDPKQKWIQC-NH2; disulfide 3-13): the half-life in the series “Half-life in rat in vivo” amounted to 5 min. Moreover, the EC50 with MCP-1 is above 1000 nM. The “v IL-8 inhibition (%)” value in the series on IL-8 is −5.1%.
For the compound `CC[C@H](C)[C@@H]1NC(=O)[C@H](Cc2c[nH]c3ccccc23)NC(=O)[C@H](CCCCN)NC(=O)[C@@H](CCC(N)=O)NC(=O)[C@H](CCCCN)NC(=O)[C@@H]2CCCN2C(=O)[C@H](CC(=O)O)NC(=O)[C@H](CC(C)C)NC(=O)[C@@H](NC(C)=O)CSSC[C@@H](C(N)=O)NC(=O)[C@H](CCC(N)=O)NC1=O` [Example 28, Ac-c(Cys-Leu-Asp-Pro-Lys-D-Gln-Lys-Trp-Ile-Gln-Cys)-NH2] (Ac-CLDPK[dQ]KWIQC-NH2; disulfide 1-11), the half-life in “Half-life in rat in vivo” is 14 min. The compound also displayed an EC50 in the series with MCP-1 of 4 nM. For the same compound, the “v IL-8 inhibition (%)” value with IL-8 is recorded as 96.9%.
In the case of `CCCC(=O)N[C@@H]1CSSC[C@H](C(N)=O)NC(=O)[C@@H](CCCCN)NC(=O)[C@@H](Cc2c[nH]c3ccccc23)NC(=O)[C@@H]([C@H](C)CC)NC(=O)[C@@H](CCC(N)=O)NC1=O` [Example 191, nButyryl-c(D-Cys-D-Gln-D-Ile-D-Trp-D-Lys-D-Cys)-NH2] (Butyryl-[dC][dQ][dI][dW][dK][dC]-NH2; disulfide 1-6), the half-life in “Half-life in rat in vivo” worked out at 30 min. In addition, in the series with MCP-1, the response was half-maximal at 5 nM (EC50).
In the case of `CC[C@H](C)[C@@H]1NC(=O)[C@H](Cc2c[nH]c3ccccc23)NC(=O)[C@H](CCCCN)NC(=O)[C@@H](NC(C)=O)CSSC[C@@H](C(N)=O)NC(=O)[C@H](CCC(N)=O)NC1=O` [Example 55, Ac-c(Cys-Lys-Trp-Ile-Gln-Cys)-NH2] (Ac-CKWIQC-NH2; disulfide 1-6), in “Half-life in rat in vivo”, the “T ½ rat in vivo” value is reported as 16.5 min and the half-life is 18 min. The same compound registered an EC50 in the series on MCP-1 of 6 nM.
As to `CC[C@H](C)[C@@H]1NC(=O)[C@H](Cc2c[nH]c3ccccc23)NC(=O)[C@@H](CCCCN)NC(=O)[C@H](CCC(N)=O)NC(=O)[C@H](CCCCN)NC(=O)[C@@H]2CCCN2C(=O)[C@H](CC(=O)O)NC(=O)[C@H](CC(C)C)NC(=O)[C@@H](NC(C)=O)CSSC[C@@H](C(N)=O)NC(=O)[C@H](CCC(N)=O)NC1=O` [Example 27, Ac-c(Cys-Leu-Asp-Pro-Lys-Gln-D-Lys-Trp-Ile-Gln-Cys)-NH2] (Ac-CLDPKQ[dK]WIQC-NH2; disulfide 1-11), the half-life in “Half-life in rat in vivo” amounted to 22.7 min. The EC50 in the series with MCP-1 stood at 7 nM. Moreover, in the series with IL-8, the “v IL-8 inhibition (%)” value is recorded as 91.0%.
Regarding `CC[C@H](C)[C@@H]1NC(=O)[C@H](Cc2c[nH]c3ccccc23)NC(=O)[C@H](CCCCN)NC(=O)[C@@H](NC(=O)[C@H](CCC(N)=O)NC(C)=O)CSSC[C@@H](C(N)=O)NC(=O)[C@H](CCC(N)=O)NC1=O` [Example 54, Ac-Gln-c(Cys-Lys-Trp-Ile-Gln-Cys)-NH2] (Ac-QCKWIQC-NH2; disulfide 2-7), in the series “Half-life in rat in vivo”, the “T ½ rat in vivo” value is 20.9 min and the half-life came out at 30.3 min. Besides, the 50% effective concentration (EC50) in the series with MCP-1 turned out to be 10 nM.
On the same counts, the results for `CC[C@H](C)[C@@H]1NC(=O)[C@H](Cc2c[nH]c3ccccc23)NC(=O)[C@H](CCCCN)NC(=O)[C@@H](NC(=O)[C@H]2CCC(=O)N2)CSSC[C@@H](C(N)=O)NC(=O)[C@H](CCC(N)=O)NC1=O` [Example 53, DpGlu-c(Cys-Lys-Trp-Ile-Gln-Cys)-NH2] ([d(pGlu)]CKWIQC-NH2; disulfide 2-7) are 23.1 min, 19.4 min and 6 nM.
